Strand notation (5' to 3'): a small letter for the sugar, then the base; units joined by * are phosphorothioate-linked, units joined directly phosphodiester-linked; [ ] holds rarer units or linkages, { } end groups; capitals alone tell only the bases. e = 2'-O-(2-methoxyethyl) (MOE); k = constrained ethyl (cEt); [5mC] = 5-methylcytosine; d = 2'-deoxy (DNA); m = 2'-O-methyl
Test system: Yap1 mRNA
Experiment: Antisense inhibition of human Yap1 in SNU-449 cells by modified oligonucleotides, single dose (Example 5, RTS36584)
Format: cell-based
Outline: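 SNU-449 cells were given 2,000 nM oligonucleotide by free uptake for about 48 h. Yap1 mRNA was then measured by RT-qPCR with primer probe set RTS36584, normalized to total RNA by RIBOGREEN and expressed as percent of untreated control.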

[1] = Table 48, Yap1 mRNA level relative to untreated control, modified oligonucleotides targeting SEQ ID NO.: 1 and 2
[2] = Table 45, Yap1 mRNA as percent of untreated control, SNU-449 cells, single dose
[3] = Table 41, SNU-449 cells, 10,000 cells per well, free uptake, 2,000 nM modified oligonucleotide, approximately 48 hours, RTS36584, normalized to RIBOGREEN, Yap1 mRNA relative to untreated control cells
[4] = Table 49, Yap1 mRNA level relative to untreated control, modified oligonucleotides targeting SEQ ID NO.: 1 and 2
[5] = Yap1 mRNA, percent of untreated control, modified oligonucleotides targeting SEQ ID NO: 1 and 2, Table 47
[6] = Table 43 experiment, SNU-449 cells, 10,000 cells per well, free uptake, 2,000 nM, approximately 48 hours, RTS36584, Yap1 mRNA normalized to RIBOGREEN, relative to untreated control cells
[7] = Table 40 (separate experiment), SNU-449 cells, 10,000 cells per well, free uptake, 2,000 nM oligonucleotide, approx. 48 hours, RTS36584, normalized to RIBOGREEN, Yap1 mRNA relative to untreated control
[8] = Table 39, SNU-449 cells, 10,000 cells per well, free uptake, 2,000 nM oligonucleotide, approx. 48 hours, RTS36584, normalized to RIBOGREEN, Yap1 mRNA relative to untreated control
[9] = Table 52, Yap1 mRNA, modified oligonucleotides targeting SEQ ID NO: 1 and 2
[10] = Table 44 experiment, SNU-449 cells, 10,000 cells per well, free uptake, 2,000 nM, approximately 48 hours, RTS36584, Yap1 mRNA normalized to RIBOGREEN, relative to untreated control cells
[11] = Table 42 (separate experiment), SNU-449 cells, 10,000 cells per well, free uptake, 2,000 nM modified oligonucleotide, approximately 48 hours, RTS36584, normalized to RIBOGREEN, Yap1 mRNA relative to untreated control cells
[12] = Table 51, Yap1 mRNA remaining as percent of untreated control (UT), SNU-449 cells, single dose
[13] = Table 50, Yap1 mRNA remaining as percent of untreated control (UT), SNU-449 cells, single dose

## 1198323 (kA*kG*kT*dG*d[5mC]*dT*dT*dT*dG*dG*dA*dA*kG*eA*kT*e[5mC]; antisense) [Compound 1198323]
[1]
  YAP1 (% UT): 32 % UT

## 1198924 (kT*kT*dT*dG*dG*dA*dA*dG*dA*dT*d[5mC]*kT*dG*kA*dA*kA; antisense) [Compound 1198924]
[2]
  YAP1 (% UTC): 75 % UTC

## 1198677 (antisense kA*kT*dT*d[5mC]*dA*dG*dA*dT*dT*dT*dA*dG*kG*eA*kT*eG) [Compound 1198677]
[3]
  YAP1 (% UTC): 87 % UTC

## 1198297 (kA*kT*kT*dA*dG*dA*dG*dT*dA*dT*dG*dT*kG*eG*k[5mC]*eA; antisense) [Compound 1198297]
[1]
  YAP1 (% UT): 8 % UT

## 1198368 (kA*kG*kA*d[5mC]*dT*dA*dA*dG*dT*dA*dA*dG*kG*eT*kT*eT; antisense) [Compound 1198368]
[4]
  YAP1 (% UT): 79 % UT

## 1198861 (CAACTCTTATATGGTT; chemistry not fully specified) [Compound 1198861]
[5]
  YAP1 (% UT): 100 % UT

## 1198543 (antisense kA*kT*kT*dG*dT*d[5mC]*dT*d[5mC]*dA*dT*dG*d[5mC]*k[5mC]*kT*kT*eA) [Compound 1198543]
[4]
  YAP1 (% UT): 15 % UT

## 1198459 (antisense kA*kA*dA*dT*dT*dG*dT*d[5mC]*dT*d[5mC]*dA*eT*kG*e[5mC]*k[5mC]*eT) [Compound 1198459]
[6]
  YAP1 (% UTC): 28 % UTC

## 1198719 (kG*eG*kA*dA*dA*dT*dT*dG*dT*d[5mC]*dT*d[5mC]*eA*eT*kG*k[5mC]; antisense) [Compound 1198719]
[7]
  YAP1 (% UTC): 14 % UTC

## 1198922 (kG*kG*dA*dA*dG*dA*dT*d[5mC]*dT*dG*dA*kA*dA*k[5mC]*dT*k[5mC]; antisense) [Compound 1198922]
[2]
  YAP1 (% UTC): 59 % UTC

## 1095575 (antisense kA*k[5mC]*dT*dG*dA*dG*dG*dT*dA*dT*dA*eA*e[5mC]*eT*kG*kG) [Compound 1095575]
[6]
  YAP1 (% UTC): 55 % UTC

## 1198934 (kA*kT*dT*dT*dA*dG*dG*dA*dT*dG*d[5mC]*kA*dT*kG*dG*kT; antisense) [Compound 1198934]
[2]
  YAP1 (% UTC): 56 % UTC

## 1095379 (antisense kA*d[5mC]*dT*dG*dA*dG*dG*dT*dA*dT*dA*kA*e[5mC]*kT*eG*kG) [Compound 1095379]
[8]
  YAP1 (% UTC): 52 % UTC

## 1200816 (kG*k[5mC]*kA*d[5mC]*dT*mU*dT*dT*dA*d[5mC]*dA*dT*dT*kA*kG*kG; antisense) [Compound 1200816]
[9]
  YAP1 (% UT): 37 % UT

## 1198532 (kA*kA*d[5mC]*dT*dT*dT*dA*dA*dA*dG*dT*eG*kT*eA*kT*eG; antisense) [Compound 1198532]
[10]
  YAP1 (% UTC): 36 % UTC

## 1198558 (antisense kT*kA*kT*dA*dT*dT*dA*dG*dA*dG*dT*dA*kT*kG*kT*eG) [Compound 1198558]
[4]
  YAP1 (% UT): 46 % UT

## 1198347 (kG*kT*kA*dA*dT*dA*dT*dT*dG*d[5mC]*dA*dA*kT*e[5mC]*kT*eG; antisense) [Compound 1198347]
[1]
  YAP1 (% UT): 14 % UT

## 1198235 (kT*kG*d[5mC]*dT*dT*dT*dG*dG*dA*dA*dG*eA*eT*e[5mC]*kT*kG) [Compound 1198235]
[11]
  YAP1 (% UTC): 49 % UTC

## 1198227 (kA*kG*d[5mC]*dA*d[5mC]*dT*dT*dT*dT*dA*d[5mC]*eA*eT*eT*kA*kG; antisense) [Compound 1198227]
[11]
  YAP1 (% UTC): 104 % UTC

## 1198517 (kA*kA*dT*dA*dT*dT*dG*d[5mC]*dA*dA*dT*e[5mC]*kT*eG*kT*e[5mC]; antisense) [Compound 1198517]
[10]
  YAP1 (% UTC): 36 % UTC

## 1197252 (antisense k[5mC]*kT*kT*dT*mG*dG*dA*dA*dG*dA*dT*d[5mC]*dT*kG*kA*kA) [Compound 1197252]
[12]
  YAP1 (% UT): 53 % UT

## 1198763 (kG*eA*kT*dT*dT*dA*dG*dG*dA*dT*dG*d[5mC]*eA*eT*kG*kG; antisense) [Compound 1198763]
[7]
  YAP1 (% UTC): 26 % UTC

## 1198452 (kA*d[5mC]*dT*dA*dA*dG*dT*dA*dA*dG*dG*kT*eT*kT*e[5mC]*k[5mC]; antisense) [Compound 1198452]
[8]
  YAP1 (% UTC): 38 % UTC

## 1197192 (antisense kA*kT*kA*dG*dT*dG*d[5mC]*dT*dT*dT*dG*dG*dA*kA*kG*kA) [Compound 1197192]
[5]
  YAP1 (% UT): 39 % UT

## 1197218 (antisense kT*kT*kT*dA*dA*dA*dG*dT*dG*dT*dA*dT*dG*kT*k[5mC]*kA) [Compound 1197218]
[1]
  YAP1 (% UT): 29 % UT

## 1198498 (antisense kT*kT*dA*dG*dG*dA*dT*dG*d[5mC]*dA*dT*eG*kG*eT*kT*eT) [Compound 1198498]
[10]
  YAP1 (% UTC): 39 % UTC

## 1198341 (k[5mC]*kA*kA*d[5mC]*dT*d[5mC]*dT*dT*dA*dT*dA*dT*kG*eG*kT*eT; antisense) [Compound 1198341]
[4]
  YAP1 (% UT): 90 % UT

## 1198643 (kA*kT*dA*dT*dT*dA*dG*dA*dG*dT*dA*dT*kG*eT*kG*eG; antisense) [Compound 1198643]
[3]
  YAP1 (% UTC): 25 % UTC

## 1198312 (kG*k[5mC]*kA*d[5mC]*dT*dT*dT*dT*dA*d[5mC]*dA*dT*kT*eA*kG*eG; antisense) [Compound 1198312]
[1]
  YAP1 (% UT): 7 % UT

## 1074461 (kG*kA*kA*dA*dT*dT*dG*dT*d[5mC]*dT*d[5mC]*dA*dT*kG*k[5mC]*k[5mC]) [Compound 1074461]
[8]
  YAP1 (% UTC): 7 % UTC
[7]
  YAP1 (% UTC): 9 % UTC
[3]
  YAP1 (% UTC): 12 % UTC
[11]
  YAP1 (% UTC): 11 % UTC
[6]
  YAP1 (% UTC): 11 % UTC
[10]
  YAP1 (% UTC): 7 % UTC
[2]
  YAP1 (% UTC): 9 % UTC
Table 46, Yap1 mRNA as percent of untreated control, SNU-449 cells, single dose
  YAP1 (% UT): 14 % UT
[1]
  YAP1 (% UT): 20 % UT
[4]
  YAP1 (% UT): 10 % UT
[13]
  YAP1 (% UT): 16 % UT
[12]
  YAP1 (% UT): 5 % UT
[9]
  YAP1 (% UT): 15 % UT
[5]
  YAP1 (% UT): 5 % UT

## 1198307 (kT*kT*kA*d[5mC]*dA*dT*dT*dA*dG*dG*dA*dA*k[5mC]*eA*kA*eG; antisense) [Compound 1198307]
[1]
  YAP1 (% UT): 49 % UT

## 1198784 (antisense kT*eA*kT*dG*dT*dA*dA*dT*dA*dT*dT*dG*e[5mC]*eA*kA*kT) [Compound 1198784]
[7]
  YAP1 (% UTC): 94 % UTC

## 1200790 (kT*kG*kG*dA*dA*mA*dT*dT*dG*dT*d[5mC]*dT*d[5mC]*kA*kT*kG; antisense) [Compound 1200790]
[9]
  YAP1 (% UT): 33 % UT

## 1197212 (antisense kT*kT*kT*dA*dT*dG*dT*dA*dA*dT*dA*dT*dT*kG*k[5mC]*kA) [Compound 1197212]
[5]
  YAP1 (% UT): 55 % UT

## 1198604 (antisense kT*kA*kA*dT*dA*dT*dT*dG*d[5mC]*dA*dA*dT*k[5mC]*kT*kG*eT) [Compound 1198604]
[13]
  YAP1 (% UT): 48 % UT

## 1198553 (antisense kT*kA*kG*dA*dG*dT*dA*dT*dG*dT*dG*dG*k[5mC]*kA*kA*eT) [Compound 1198553]
[4]
  YAP1 (% UT): 13 % UT

From US11214803B2, “Modulators of YAP1 expression” (Ionis Pharmaceuticals, Inc., priority 2019, dated 2022)
